From US9062041B2 (Bayer Intellectual Property GmbH, priority 2011, dated 2015)

Legend:
Assay type in all cases: cell-based
[1] = biological target: EP4 subtype of the human PGE2 receptor (Homo sapiens, UniProt P35408); experiment: cAMP antagonism test on the human EP4 receptor (HTRF cAMP detection); settings: selectivity towards hEP4, IC50 measured by cAMP antagonism test
Procedure, shortened: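 Competitive HTRF cAMP read-out (cAMP-d2 vs Eu-cryptate anti-cAMP antibody, 665/620 nm ratio) on lysed human EP4 cells. Compound (0.8 nM–16.5 μM) applied 20 min at RT before 60 min PGE2 challenge (3× solution 0.3 nM, IBMX present); 20 min lysis precedes reading.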

[2] = biological target: EP2 subtype of the human PGE2 receptor (Homo sapiens, UniProt P43116); experiment: cAMP antagonism test on the human EP2 receptor (HTRF cAMP detection); settings: hEP2 receptor, read-out: Antagonism hEP2 IC50
Procedure, shortened: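 Read-out is a competitive HTRF for cAMP: lysate cAMP displaces cAMP-d2 from Eu cryptate-labelled antibody, and antagonism raises the 665/620 nm ratio. Compound (0.8 nM–16.5 μM) added to EP2 cells 20 min at RT before 60 min PGE2 challenge (3× stock 1.5 nM) with IBMX, followed by 20 min lysis.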

human PGD receptor = biological target: T1, human PGD receptor (Homo sapiens, UniProt Q13258); experiment: cAMP antagonism test on the human prostaglandin D receptor (HTRF cAMP detection); settings: selectivity towards hDP, IC50 measured by cAMP antagonism test
T1 sequence (Q13258 1-359): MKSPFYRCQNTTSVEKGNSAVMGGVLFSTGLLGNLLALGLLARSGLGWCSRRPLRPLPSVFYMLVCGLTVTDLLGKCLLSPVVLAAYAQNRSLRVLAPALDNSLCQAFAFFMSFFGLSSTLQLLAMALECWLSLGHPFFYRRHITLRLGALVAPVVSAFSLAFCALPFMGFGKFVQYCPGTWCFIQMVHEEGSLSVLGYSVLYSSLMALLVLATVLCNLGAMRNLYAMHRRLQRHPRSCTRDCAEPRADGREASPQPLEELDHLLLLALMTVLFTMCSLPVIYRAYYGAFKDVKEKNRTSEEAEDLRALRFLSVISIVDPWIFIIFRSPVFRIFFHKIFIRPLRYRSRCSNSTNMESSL
Procedure, shortened: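 HTRF competition read-out (665/620 nm ratio ×10000), where higher FRET means less cAMP, i.e. antagonism. Compounds (0.8 nM–16.5 μM) were preincubated 20 min at RT with cells and cAMP-d2, PGD2 (3× solution, 6 nM) in IBMX-containing PBS added for 30 min at RT, then cells lysed 20 min.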

EP4 subtype of the human PGE2 receptor, sequence (P35408 whole entry): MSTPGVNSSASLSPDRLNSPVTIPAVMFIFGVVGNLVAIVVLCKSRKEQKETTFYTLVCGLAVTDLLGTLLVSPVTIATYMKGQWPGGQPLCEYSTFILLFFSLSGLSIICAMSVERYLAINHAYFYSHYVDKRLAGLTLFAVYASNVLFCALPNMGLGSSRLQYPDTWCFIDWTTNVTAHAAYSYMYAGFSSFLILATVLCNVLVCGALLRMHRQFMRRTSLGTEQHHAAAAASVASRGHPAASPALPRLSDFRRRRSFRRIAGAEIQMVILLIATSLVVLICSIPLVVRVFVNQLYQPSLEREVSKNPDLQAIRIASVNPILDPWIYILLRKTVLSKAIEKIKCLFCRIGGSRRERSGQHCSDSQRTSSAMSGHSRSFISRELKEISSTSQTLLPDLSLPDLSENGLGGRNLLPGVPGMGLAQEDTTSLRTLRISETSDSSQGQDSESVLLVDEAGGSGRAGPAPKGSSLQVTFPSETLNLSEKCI
EP2 subtype of the human PGE2 receptor, sequence (P43116 whole entry): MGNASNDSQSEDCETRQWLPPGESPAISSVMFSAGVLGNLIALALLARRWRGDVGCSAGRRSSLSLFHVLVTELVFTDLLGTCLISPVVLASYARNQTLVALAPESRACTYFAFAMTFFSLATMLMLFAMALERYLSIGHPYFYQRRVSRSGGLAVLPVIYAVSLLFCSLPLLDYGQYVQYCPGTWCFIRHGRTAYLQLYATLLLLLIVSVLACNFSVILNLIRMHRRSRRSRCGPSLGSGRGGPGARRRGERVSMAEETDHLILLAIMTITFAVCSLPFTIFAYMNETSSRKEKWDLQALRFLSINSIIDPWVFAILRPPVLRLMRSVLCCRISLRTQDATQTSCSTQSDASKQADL

SMILES	Selectivity hEP2/hEP4 [1]	IC50 [2] [nM]	Selectivity hEP2/hDP (human PGD receptor)
Cc1c(C(=O)NCC(F)(F)F)ccc2nn(CC3CN(C(=O)c4ccc(C(F)(F)F)cc4F)C3)cc12 [Example 131, 2-({1-[2-fluoro-4-(trifluoromethyl)benzoyl]azetidin-3-yl}methyl)-4-methyl-N-(2,2,2-trifluoroethyl)-2H-indazol-5-carboxamide]	xx (xx: 10-100)	228	xx (xx: 10-100)
COCCNC(=O)c1ccc2nn(CC3CCN(C(=O)c4ccc(-c5cncc(F)c5)cc4)CC3)cc2c1C [Example 386, 2-({1-[4-(5-fluoropyridin-3-yl)benzoyl]piperidin-4-yl}methyl)-N-(2-methoxy-ethyl)-4-methyl-2H-indazol-5-carboxamide]	xxx (xxx > 100)	25.7	xxx (xxx > 100)
Cc1cc2nn(CC3CN(C(=O)c4ccc(OC(F)(F)F)cc4)C3)cc2cc1C(=O)NCCN1CCOCC1 [Example 279, 6-methyl-N-(2-morpholinoethyl)-2-({1-[4-(trifluoromethoxy)benzoyl]azetidin-3-yl}methyl)-2H-indazol-5-carboxamide]	xxx (xxx > 100)	57.4	xxx (xxx > 100)
COCCNC(=O)c1ccc2nn(CC3CCN(C(=O)c4ccc(Oc5ccc(C)cc5)cc4)CC3)cc2c1C [Example 15, N-(2-methoxyethyl)-4-methyl-2-({1-[4-(4-methylphenoxy)-benzoyl]piperidin-4-yl}methyl)-2H-indazol-5-carboxamide]	xxx (xxx > 100)	4.17	xxx (xxx > 100)
COCCNC(=O)c1ccc2nn(CC3CCN(C(=O)c4ccc(Oc5cccc(C(F)(F)F)n5)cc4)CC3)cc2c1C [Example 350, N-(2-methoxyethyl)-4-methyl-2-{[1-(4-{[6-(trifluoromethyl)pyridin-2-yl]oxy}-benzoyl)piperidin-4-yl]methyl}-2H-indazol-5-carboxamide]	xxx (xxx > 100)	8.41	xxx (xxx > 100)
COCCNC(=O)c1ccc2nn(CC3CN(C(=O)c4cc5cc(F)ccc5n4C)C3)cc2c1C [Example 170, 2-({1-[(5-fluoro-1-methyl-1H-indol-2-yl)carbonyl]azetidin-3-yl}methyl)-N-(2-methoxyethyl)-4-methyl-2H-indazol-5-carboxamide]	xxx (xxx > 100)	4.25	xxx (xxx > 100)
COCCNC(=O)c1ccc2nn(CC3CCN(C(=O)c4ccc(Br)c(C)c4)CC3)cc2c1C [Example 332, 2-{[1-(4-bromo-3-methylbenzoyl)piperidin-4-yl]methyl}-N-(2-methoxyethyl)-4-methyl-2H-indazol-5-carboxamide]	xxx (xxx > 100)	5.47	xxx (xxx > 100)
COCCNC(=O)c1ccc2nn(C[C@@H]3CCN(C(=O)c4ccc(OC(F)(F)F)cc4)C3)cc2c1C [Example 218, N-(2-methoxyethyl)-4-methyl-2-({(R)-1-[4-(trifluoromethoxy)benzoyl]-pyrrolidin-3-yl}methyl)-2H-indazol-5-carboxamide]	xxx (xxx > 100)	128	xxx (xxx > 100)
Cc1c(C(=O)NCCN2CCC(F)(F)C2)ccc2nn(CC3CN(C(=O)c4ccc(Cl)cc4)C3)cc12 [Example 126, 2-{[1-(4-chlorobenzoyl)azetidin-3-yl]methyl}-N-[2-(3,3-difluoropyrrolidin-1-yl)ethyl]-4-methyl-2H-indazol-5-carboxamide]	xxx (xxx > 100)	21.2	xxx (xxx > 100)
Cc1cc2nn(CC3CCN(C(=O)c4cccc(S(F)(F)(F)(F)F)c4)CC3)cc2cc1C(=O)NCCN1CCOCC1 [Example 81, 6-methyl-N-(2-morpholinoethyl)-2-({1-[3-(pentafluoro-λ^6-sulphanyl)benzoyl]-piperidin-4-yl}-methyl)-2H-indazol-5-carboxamide]	xx (xx: 10-100)	513	xx (xx: 10-100)
Cc1c(C(=O)NCC(F)(F)F)ccc2nn(CC3CN(C(=O)c4ccc(Oc5ccc(F)cc5)cc4)C3)cc12 [Example 160, 2-({1-[4-(4-fluorophenoxy)benzoyl]azetidin-3-yl}methyl)-4-methyl-N-(2,2,2-trifluoroethyl)-2H-indazol-5-carboxamide]	xxx (xxx > 100)	82.9	xxx (xxx > 100)
COCCNC(=O)c1ccc2nn(CC3CCN(C(=O)c4ccc(C(C)(C)C)cc4)CC3)cc2c1C [Example 333, 2-{[1-(4-tert-butylbenzoyl)piperidin-4-yl]methyl}-N-(2-methoxyethyl)-4-methyl-2H-indazol-5-carboxamide]	xxx (xxx > 100)	6.42	xxx (xxx > 100)
COCCNC(=O)c1ccc2nn(CC3CCN(C(=O)c4ccc(-c5ccccc5)c(F)c4)CC3)cc2c1C [Example 49, 2-({1-[(2-fluoro-biphenyl-4-yl)-carbonyl]piperidin-4-yl}methyl)-N-(2-methoxyethyl)-4-methyl-2H-indazol-5-carboxamide]	xxx (xxx > 100)	6.44	xxx (xxx > 100)
COCCNC(=O)c1ccc2nn(CC3CCN(C(=O)c4ccc(OC(F)(F)F)c(F)c4)CC3)cc2c1OC [Example 272, 2-({1-[3-fluoro-4-(trifluoromethoxy)benzoyl]piperidin-4-yl}methyl)-4-methoxy-N-(2-methoxyethyl)-2H-indazol-5-carboxamide]	xxx (xxx > 100)	23.7	xxx (xxx > 100)
Cc1cc2nn(CC3CN(C(=O)c4ccc(OC(F)(F)F)cc4)C3)cc2cc1C(=O)NCCOC(F)(F)F [Example 196, 6-methyl-2-({1-[4-(trifluoromethoxy)benzoyl]azetidin-3-yl}methyl)-N-[2-(trifluoromethoxy)ethyl]-2H-indazol-5-carboxamide]	xxx (xxx > 100)	50.8	xxx (xxx > 100)
Cc1c(C(=O)NCC(F)(F)F)ccc2nn(CC3CCN(C(=O)c4ccc(Oc5ccc(C#N)cn5)cc4)CC3)cc12 [Example 310, 2-[(1-{4-[(5-cyanopyridin-2-yl)oxy]benzoyl}piperidin-4-yl)methyl]-4-methyl-N-(2,2,2-trifluoroethyl)-2H-indazol-5-carboxamide]	xx (xx: 10-100)	806	xx (xx: 10-100)
COCCNC(=O)c1ccc2nn(CC3CCN(C(=O)c4nc5ccccc5n4C)CC3)cc2c1C [Example 338, N-(2-methoxyethyl)-4-methyl-2-({1-[(1-methyl-1H-benzimidazol-2-yl)carbonyl]-piperidin-4-yl}methyl)-2H-indazol-5-carboxamide]	xxx (xxx > 100)	28	xxx (xxx > 100)
COc1ccc2cc(C(=O)N3CCC(Cn4cc5c(C)c(C(=O)NCC(F)(F)F)ccc5n4)CC3)n(C)c2c1 [Example 295, 2-({1-[(6-methoxy-1-methyl-1H-indol-2-yl)carbonyl]piperidin-4-yl}methyl)-4-methyl-N-(2,2,2-trifluoroethyl)-2H-indazol-5-carboxamide]	xxx (xxx > 100)	70.8	xxx (xxx > 100)
Cc1c(C(=O)NCCN2CCOCC2)ccc2nn(CC3CCN(C(=O)c4ccc(C(F)(F)F)cc4)CC3)cc12 [Example 63, 4-methyl-N-(2-morpholinoethyl)-2-({1-[4-(trifluoromethyl)benzoyl]piperidin-4-yl}methyl)-2H-indazol-5-carboxamide]	xx (xx: 10-100)	1440	xx (xx: 10-100)
